The source of these data is PMC4764201, “High Throughput Screen for Escherichia coli Twin Arginine Translocation (Tat) Inhibitors” (PLoS ONE, 2016).

For assay [1], the system named is Escherichia coli Tat pathway. Put plainly: Live cell assay: total mCherry fluorescence of cells producing spTorA-mCherry-SsrA (primary HTS assay). In kind it is cell-based. The conditions noted are these: for effect on mCherry fluorescence in culture: nigericin and/or valinomycin, 50 μM each. The source says: Having obtained the calibration and validation data described in the previous sections, we next established the protocol for the HTS. Details are provided in the Materials and Methods section. Here, we briefly summarize the assay. A single colony of E. coli strain MC4100(DE3) containing plasmids encoding TatABC and spTorA-mCherry-SsrA was inoculated into LB and grown overnight. The next morning, cells were transferred to fresh media, the production of TatABC and spTorA-mCherry-SsrA was induced, and cultures were aliquoted onto plates with test compounds. NaSCN was included in control wells to simulate a hit. Cells were grown for 8 h, followed by incubation at 4°C overnight, and then read the next day. Setting the total cellular fluorescence obtained with spTorA-mCherry-H6 under Tat^++ conditions to 100%, spTorA-mCherry-SsrA yielded a total cellular fluorescence signal of 63±14%, consistent with SsrA-induced degradation of the mCherry protein. The total cellular fluorescence was further reduced to 36±14% in the presence of 30 mM NaSCN (simulated hit), and to 41±6% in the absence of TatABC, verifying the Δψ- and Tat-dependence of the fluorescence signal (Fig 4D).
A single colony of E. coli strain MC4100(DE3) (pTatABC-DUET1, pTorA-mCherry-SsrA) was inoculated into a 100 mL LB culture supplemented with Ap and Cm and grown at 37°C with shaking (250 rpm) overnight. Cells were harvested by centrifugation at 4,000g for 10 min at room temperature (RT), suspended in 10 mL fresh LB broth supplemented with Ap and Cm, and the optical density (A500) was determined. Simultaneously, 700 mL LB supplemented with 100 mM arabinose, 2 mM IPTG, 100 μg/mL Ap and 68 μg/mL Cm was filter-sterilized (0.22 μm), and then divided into 200 mL (A) and 500 mL (B) portions. Sterile NaSCN (30 mM final; 1.5 mL of 4 M NaSCN) was added to portion A, and an equal ratio of sterile water was added to portion B (3.75 mL). Media and cells were transferred to the HTS facility on ice.
A CyBi-Well vario pipetting workstation (CyBio, Jena, Germany) was used to dispense library compounds and cultures. Library compounds (1 μL) solubilized in DMSO were added to 384-well black, clear-bottomed plates (Greiner Bio-one, Germany) in columns 3 to 22 (320 wells/plate). For controls, DMSO (1 μL) was added to each well in columns 1, 2, […], to achieve DMSO uniformity across the plate. Both portions of LB media were inoculated with E. coli MC4100(DE3) (pTatABC-DUET1, pTorA-mCherry-SsrA) from the concentrated stock to a final A500 = 0.15. The media with 30 mM NaSCN (positive control, or simulated hit) was dispensed into each well of columns 1 and 24 (49 μL each). An equivalent volume of media without NaSCN was dispensed into each well of columns 2 to 23. Columns 2 and 23 lacked NaSCN and test compounds and served as negative controls. The first 12,800 compounds were screened at 5 μM (plates 1–40), and the remaining 38,800 compounds were screened at 20 μM (plates 41–162).
(§1) The plates containing cells and dispersed test compounds were grown with shaking (200 rpm) at 25°C for 8 h. Plates were individually mounted, not stacked, on a hollow plastic platform, allowing adequate air circulation. Following the 8 h incubation, plates were transferred to 4°C for 16 h. Each plate was covered with an empty plate to prevent condensation on the lid. […] Following the incubation, plates were read using a BMG Polarstar Omega plate reader (BMG Labtech, Ortenberg, Germany) to determine optical densities (A500) and mCherry fluorescence intensities (EX = 584 nm, EM = 620 nm).
Supplementary file pone.0149659.s003.tiff: S3 Fig IC50's for Hit Compound 181^JS. (A) The total cellular mCherry fluorescence (live cell assay; n = 1), (B) the in vitro NADH-dependent Tat transport efficiency of pre-SufI (n = 1), and (C) the maximum transmembrane electrical potential gradient (n = 1) were measured for a range of concentrations of compound 181^JS (S2E Fig). (D) SDS-PAGE gel showing in-gel fluorescence data used in (B). […]

The subject of assay [2] is E. coli MC4100(DE3). Put plainly: Cell growth (optical density A500) under Tat++ conditions. The format is cell-based, Escherichia coli. The protocol: Fig 4 Effect of Oxidative Phosphorylation Inhibitors on In Vivo Tat Transport and Sensitivity of Fluorescence Detection on Plates. (A) Effect of oxidative phosphorylation inhibitors on cell growth and mCherry fluorescence under Tat^++ conditions. Cells producing spTorA-mCherry-SsrA under Tat^++ conditions were grown at 25°C for 8 h in the presence of the indicated respiratory inhibitors. After overnight incubation at 4°C, optical densities (upper panel; A500) and total mCherry cellular fluorescence intensities (lower panel; EX = 587 nm, EM = 610 nm) were measured (n = 3). Nigericin (N; 50 μM) is a H^+/K^+ exchanger, which collapses the ΔpH gradient. Valinomycin (V; 50 μM) is a K^+ ionophore, which collapses the Δψ. NaSCN (SCN; 50 mM) collapses the Δψ. NaN3 (N3; 0.1%) inhibits the cytochrome bo3 terminal oxidase. (B) Effect of NaSCN concentration on cell density and total mCherry cellular fluorescence. Measurements were made after incubating cells overnight at 4°C (n = 3). (C) Calibration and sensitivity of mCherry fluorescence detection in 384-well plates. Overnight cultures of E. coli MC4100(DE3) cells were diluted to A500 = 0.25, 0.2, 0.15, 0.10 and 0.05, and aliquoted into 384-well plates. The spTorA-mCherry-SsrA and TatABC proteins were induced together or neither were induced, as indicated. The cells were incubated at 25°C for 8 hours, and stored overnight at 4°C. Optical densities (upper panel) and mCherry fluorescence intensities (lower panel) were determined with a BMG Polarstar Omega plate reader (at 500 nm for absorbance; EX = 584 nm, EM = 620 nm for fluorescence). For comparison, the absorbance and fluorescence intensities from purified spTorA-mCherry-H6 (30, 25, 20, 15, 10 and 5 nM) are also shown (n = 3 plates, 16 wells/plate). (D) Simulated hits on 384-well plates. Using the approach described in (C), cells (A500 = 0.15) were grown on plates under the indicated conditions, and then fluorescence intensities were measured. spTorA-mCherry-SsrA was used for conditions II-IV. spTorA-mCherry-H6 was used for a minus SsrA control (I; 100%). The SsrA tag decreased the mCherry fluorescence intensity (II; 63±14%), consistent with a decrease in cytoplasmic mCherry concentration due to SsrA-dependent degradation.
as §1
Supplementary file pone.0149659.s005.tiff: S5 Fig Effect of P. aeruginosa Tat Inhibitors on E. coli Cell Growth and Tat Transport. The concentration-dependent effects of Bay 11–7082 (A) and N-phenylmaleimide (B) on bacterial growth (black) and in vivo Tat transport of spTorA-mCherry-SsrA (red) was determined under Tat^++ conditions (top). An overnight culture of MC4100(DE3) (pTorA-mCherry-SsrA, pTatABC-Duet1) was diluted 1:50 in 10 mL fresh LB broth with appropriate antibiotics and dispensed (2 mL) into 5 tubes, and growth was continued at 37°C with shaking at 200 rpm until A500 ≈ 0.5. The indicated concentrations of the two compounds were added, and the expression of spTorA-mCherry-SsrA and TatABC were induced. Cultures were grown for another 8 h at 25°C. Cell growth was assayed by A500, and cells (1 mL, A500 = 1.0) were fractionated into cytoplasmic (C) and periplasmic (P) fractions as described. Transport of spTorA-mCherry-SsrA was assayed by in-gel fluorescence of mCherry (upper gels) and Western blot analyses (middle gels). […]

Assay [3] has as its target E. coli Tat machinery (IMVs containing overproduced TatABC) (Escherichia coli, UniProt P69423+P69425+P69428). The conditions noted are these: cited from earlier work; for effect on Tat transport in vitro: 2.5 μM of each of the two ionophores, both added.
Setting [4] is: nigericin and/or valinomycin, 50 μM each.

Structures are written as SMILES.

Chain of E. coli Tat machinery (IMVs containing overproduced TatABC) (P69423 2-258): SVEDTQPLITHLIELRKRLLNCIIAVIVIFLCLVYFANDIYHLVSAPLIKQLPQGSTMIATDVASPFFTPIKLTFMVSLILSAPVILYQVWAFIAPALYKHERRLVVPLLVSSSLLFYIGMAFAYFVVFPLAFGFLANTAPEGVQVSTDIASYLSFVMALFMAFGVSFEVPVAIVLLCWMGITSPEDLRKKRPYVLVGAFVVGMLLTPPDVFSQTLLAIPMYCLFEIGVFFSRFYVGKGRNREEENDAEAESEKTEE
Chain of E. coli Tat machinery (IMVs containing overproduced TatABC) (P69425 whole entry): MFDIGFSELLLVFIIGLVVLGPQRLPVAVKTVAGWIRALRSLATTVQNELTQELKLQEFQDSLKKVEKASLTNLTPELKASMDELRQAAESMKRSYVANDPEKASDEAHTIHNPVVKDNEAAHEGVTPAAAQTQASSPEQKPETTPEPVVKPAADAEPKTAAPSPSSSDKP
Chain of E. coli Tat machinery (IMVs containing overproduced TatABC) (P69428 whole entry): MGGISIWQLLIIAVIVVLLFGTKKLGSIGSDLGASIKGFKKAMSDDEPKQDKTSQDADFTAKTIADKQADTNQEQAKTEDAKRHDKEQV

Take `N#C[S-].[Na+]` [NaSCN]: in assay [1] (30 mM NaSCN, spTorA-mCherry-H6 under Tat++ = 100%, spTorA-mCherry-SsrA without NaSCN 63±14%), the “total cellular fluorescence (mCherry)” value came to 36±14%. Also, in assay [1] (NaSCN 50 mM, Tat++ cells, 25°C 8 h), the “reduction of mCherry fluorescence” value is listed as ~ 40%. Also, the “concentration sufficient to maximally reduce the mCherry fluorescence signal without affecting cell growth” value in assay [1] (dose response, Tat++ cells) turned out to be 30 mM. In addition, the “effect on growth of E. coli cultures” value in assay [2] (NaSCN 50 mM) is “without affecting growth”. The “effect on in vitro Tat transport” value in assay [3] (NaSCN alone) was “completely inhibits”.
As to `[N-]=[N+]=[N-].[Na+]` [Sodium azide], the “effect on mCherry fluorescence signal” value in assay [1] (NaN3 0.1%) is “decreased the mCherry fluorescence signal”. The “effect on cell growth” value in assay [2] (NaN3 0.1%) is on record as “inhibited cell growth”.
As for `CO[C@@H]1C[C@@H](C[C@H]2CC[C@H](C)[C@H]([C@@H](C)C(=O)O)O2)O[C@]2(O[C@](C)([C@H]3CC[C@@](C)([C@@H]4O[C@@H]([C@H]5O[C@@](O)(CO)[C@H](C)C[C@@H]5C)C[C@@H]4C)O3)C[C@H]2C)[C@@H]1C` [nigericin], the “effect on mCherry fluorescence in culture” value in assay [1] is “did not affect”. Besides, in assay [2] (setting [4]), the “effect on cell growth” value is on record as “did not affect”. Besides, the “effect on Tat transport in vitro” value in assay [3] is “completely block”.
Regarding `CC(C)[C@@H]1NC(=O)[C@H](C)OC(=O)[C@@H](C(C)C)NC(=O)[C@@H](C(C)C)OC(=O)[C@H](C(C)C)NC(=O)[C@H](C)OC(=O)[C@@H](C(C)C)NC(=O)[C@@H](C(C)C)OC(=O)[C@H](C(C)C)NC(=O)[C@H](C)OC(=O)[C@@H](C(C)C)NC(=O)[C@@H](C(C)C)OC1=O` [valinomycin], the “effect on mCherry fluorescence in culture” value in assay [1] is listed as “did not affect”. The “effect on cell growth” value in assay [2] (setting [4]) is given as “did not affect”. Besides, the “effect on Tat transport in vitro” value in assay [3] is recorded as “completely block”.
